Measured values from article PMC10917151 (Nature chemical biology, 2023).

Key:
[1] = molecular target: endogenous BRD4 in HEK293T cells (Homo sapiens, UniProt O60885); test: Western blot of endogenous BRD4 degradation; type: cell-based; settings: 18 h
VHL-LgBiT (human) = VHL-LgBiT (human) (UniProt P40337)
Sequence of VHL-LgBiT (human) (P40337 whole entry): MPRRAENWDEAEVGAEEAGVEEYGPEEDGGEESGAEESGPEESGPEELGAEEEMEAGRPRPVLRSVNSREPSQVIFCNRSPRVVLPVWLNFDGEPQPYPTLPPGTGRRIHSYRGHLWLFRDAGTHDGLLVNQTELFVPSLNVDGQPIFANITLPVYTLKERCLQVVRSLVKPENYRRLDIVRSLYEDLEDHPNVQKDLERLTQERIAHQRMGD

Molecule: Cc1ncsc1-c1ccc(CNC(=O)[C@@H]2C[C@@H](O)CN2C(=O)[C@@H](NC(=O)COCCOCCOCCNC(=O)C[C@@H]2N=C(c3ccc(Cl)cc3)c3c(sc(C)c3C)-n3c(C)nnc32)C(C)(C)C)cc1 [MZ1]
- endogenous BRD4 degradation at 1 μM (Western blot) ([1]; 1 μM): complete BRD4 removal

Molecule: CC(=O)N[C@H](C(=O)N1C[C@H](O)C[C@H]1C(=O)NCc1ccc(-c2scnc2C)cc1)C(C)(C)C [VH032]
- endogenous BRD4 degradation (Western blot) [1]: no degradation

Molecule: SmBiT-BRD4^BD1 (domain or fragment)
- HiBiT assay: DC50 of degradation of HiBiT-tagged BRD4^BD1 in HEK293T with CIP-2 (VHL-LgBiT (human)): 17 nM
- HiBiT assay: Dmax of degradation of HiBiT-tagged BRD4^BD1 in HEK293T with CIP-2 (VHL-LgBiT (human)): 93%
